Reference: paper PMC4830539, “Chemical Inhibition of Histone Deacetylases 1 and 2 Induces Fetal Hemoglobin through Activation of GATA2” (PLoS ONE, 2016)

Legend:
HBG mRNA = HBG mRNA in burst forming unit erythroid (BFU-E) colonies; assay type: cell-based, human; conditions: 14 days
Method: Burst forming unit erythroid (BFU-E) assays were performed by ReachBio Research Labs (Seattle, WA). On the day of the experiment, normal human bone marrow mononuclear cells (Lonza) were thawed rapidly, diluted in 10 mL of IMDM containing 10% fetal bovine serum and washed by centrifugation. The supernatant was discarded and the cell pellet resuspended in a known volume of IMDM + 10% FBS. ACY-957 or vehicle was added to a semi-solid methylcellulose-based media formulation containing IL3 (10 ng/mL), CSF2 (10 ng/mL), KITLG (50 ng/mL), and EPO (3 U/mL) and plated in triplicate. BFU-E assays were initiated at 2.5 x 10^4 cells per culture. Following 14–16 days in culture, BFU-E colonies were isolated and RNA purified using the RNeasy Micro Kit (Qiagen).
Globin mRNA was detected using quantitative real time PCR (QPCR). Total RNA was isolated using RNeasy Micro Kit (Qiagen) with on-column DNase digestion, converted into cDNA using the High Capacity RNA-to-cDNA Kit (Life Technologies), diluted 5-fold with water, and 1 μL used as a template for QPCR. The percent of each β-like globin transcript was determined using the absolute standard curve method. Briefly, DNA corresponding to the full length transcript for each globin isoform was cloned into […] plasmid (GenScript, Piscataway NJ). Each plasmid was validated against each QPCR probe to ensure specificity. Plasmids were pooled at equal molar concentration and a dilution series spanning 8-logs was utilized as the standard curve. Throughout this work, ‘HBG mRNA (%)’ and ‘percent HBG mRNA’ refers to the abundance of HBG mRNA expressed relative to the sum of the abundances of all β-like globin transcripts, i.e. [HBG/(HBB+HBD+HBG+HBE)]*100. In cases where the transcript of interest was compared against the housekeeping gene ACTB, the comparative Ct ([…]) method was utilized. […]

[1] = test system: gene expression in BM cells; test: Gene expression profiling (Affymetrix GeneChip) of erythroid progenitors; assay type: cell-based, human
Method: BM cells were cultured in CS1 expansion media for 7 days, and then shifted to CS1 differentiation media containing vehicle or 1 μM ACY-957 for 5 days. Total RNA was isolated from cells at day 5 of differentiation using RNeasy Micro Kit with on-column DNase digestion (Qiagen). This experiment was performed in triplicate using cells from three independent donors on separate days to obtain vehicle treated (n = 3) and ACY-957 treated (n = 3) samples for GeneChip analysis. GeneChip sample preparation, hybridization, and data acquisition was performed by the Covance Genomics Laboratory (Seattle, WA) using Affymetrix GeneChip PrimeView™ Human Gene Expression Array according to manufacturer’s protocol. […] For the analysis of HDAC1 or HDAC2 knockdown in erythroblasts, raw gene expression data was downloaded from NCBI GEO website, series GSE22366 [21].
Data analysis was performed using BRB-ArrayTools. GSE60791 and GSE22366 data series were imported and analyzed independently. Raw data CEL files were processed with the robust multi-chip average (RMA) algorithm. Fold changes were derived from the geometric mean of intensity values in each treatment class. In the case of GSE60791, P-values were generated between ACY-957 and vehicle treated samples using a paired t test with random variance model applied. In the case of GSE22366, P-values were generated between luciferase control and HDAC1 or HDAC2 knockdown samples using a two-sample t test with random variance model applied.
Duplicate gene symbols were removed by selecting the probe set with the lowest P-value. Next, these 4 gene sets were appended to the Molecular Signatures Database collection of Chemical and Genetic Perturbations. This database contained approximately 2777 gene sets, each containing at least 15 genes and no more than 10000 genes. Finally, log base 2 mRNA data from ACY-957 or vehicle treated cells was loaded into the publically available GSEA software from the Broad Institute and queried against the database of gene sets described above. ACY-957 phenotype was compared against vehicle phenotype by first collapsing the data set to gene symbols based on maximum probe signal and then using a weighted, signal-to-noise metric for ranking genes. Gene set permutations were performed to generate nominal P-values for each gene set.
We interrogated the mechanism through which HDAC1/2 inhibition induces HBG by performing gene expression profiling on ACY-957 or vehicle treated cells in CS1. Because HDAC inhibition prevented cells from fully upregulating GYPA (Fig 4) we isolated RNA at day 5 of differentiation, a time point prior to the observed differentiation block.

[2] = parameters: method as in earlier work; conditions: rat; cited from earlier work
[3] = treatment versus control, 1 μM, day 5

Nc1ccc(-c2cccs2)cc1NC(=O)c1ccc2nc(N3CCNCC3)ccc2c1 [ACY-957]
each β-like globin transcript relative to ACTB (HBG mRNA): increased HBE and HBG mRNA and decreased HBD and HBB mRNA
percent HBG (HBG mRNA; 1 μM): 48%
percent HBG (HBG mRNA; 2 μM): 82%
BCL11A down-regulated ([1]; GeneChip, 1 μM, day 5): 1.3 fold
GATA2 up-regulated ([1]; GeneChip, 1 μM, day 5): 2.8 fold
SOX6 down-regulated ([1]; GeneChip, 1 μM, day 5): 2.5 fold
expression of HBG repressors MYB and KLF1 ([1]; GeneChip, 1 μM, day 5): unaffected
GATA2 induced (abstract) ([1]; gene expression profiling of erythroid progenitors): greater than 3 fold
BCL11A Ratio, candidate gene expression by GeneChip [1, 3]: 0.77
GATA1 Ratio, candidate gene expression by GeneChip [1, 3]: 1.0
GATA2 Ratio, candidate gene expression by GeneChip [1, 3]: 2.8
KLF1 Ratio, candidate gene expression by GeneChip [1, 3]: 0.87
MYB Ratio, candidate gene expression by GeneChip [1, 3]: 1.1
SOX6 Ratio, candidate gene expression by GeneChip [1, 3]: 0.41
pharmacokinetic properties [2]: favorable
